From patent EP0364584A1, “ANTIDOTE FOR ORGANIC PHOSPHORUS COMPOUND POISONING” (priority 1988, dated 1989)
Where two headings read alike, the source gives them in different places.

Experiment: Content of the drugs in blood and brain after intramuscular administration (Askew method)
Type: in vivo, Ratten
Conditions: for concentration at 2 h: 2 St., read-out: Konzentration (µg/g) 2 St. (converted); for concentration at 3 h: 3 St., read-out: Konzentration (µg/g) 3 St.; for concentration at 5 min: read-out: Konzentration (µg/g) 5 min; for concentration at 20 min: read-out: Konzentration (µg/g) 20 min (converted); for concentration at 0.5 h: 30 min, read-out: Konzentration (µg/g) 30 min; for concentration at 1 h: read-out: Konzentration (µg/g) I St.; for concentration at 10 min: IO min, read-out: Konzentration (µg/g) IO min (converted)
Method: Mit Hilfe der Methode von Askew (1956) wurde in der Dynamik der Gehalt des erfindungsgemäßen Arzneimittels im Blut und Gehirn der Tiere untersucht. Die Untersuchungen wurden im Vergleich zum bekannten Präparak TMB-4 vorgenommen. Die Geschwindigkeit des Eindringens beider Präparate ins Blut und deren Konzentration wurden bei der-intramuskulären Einführung in Dosen von 20 ..und 50 mg/kg und der Gehirnspiegel - in einer Dosis von 50 mg/kg bestimmt. […]
Es wurde festgestellt, daß die Präparate schnell (nach 5 min) von der Einführungsstelle ins Blut eindringen, dabei wurde unabhängig von der Prüfdosis der Präparate deren Maximalgehalt im Blut 20 min nach der Einführung beobachtet, zwar erhöhte die Vergrößerung der Dosis der Präparate bis 50 mg/kg wesentlich deren Konzentrationsniveau während der ganzen Beobachtungsfrist.
Die im Vergleich zu TMB-4 durchgeführten Untersuchungen haben ergeben, dass während der ersten Stunde der Blutgehalt und das Anwachsen der Konzentrationen beider Präparate gleich waren. […] Die Untersuchungsergebnisse sind in der Tabelle 3 angeführt.
Nach den Ergebnissen der durchgeführten Untersuchungen wurde festgestellt, dass das erfindungsgemässe Arz- neimittel bei der intramuskulären Einführung schnell ins Blut und Gehirn des Tieres eindringt und zum Unterschied von TMB-4 eine längere Zeit im 3lutstrom zirkuliert und von 5 min an bis 4 Stunden Beobachtung im Gehirn in bedeutend grösseren Mengen enthalten ist.

[1] = rat, blood, im, Blut, Dosis 20 mg/kg intramuskulär, Ratten
[2] = rat, blood, im, Blut, Dosis 50 mg/kg intramuskulär, Ratten
[3] = rat, brain, im, Gehirn, Dosis 50 mg/kg intramuskulär, Ratten

C=CC[n+]1ccccc1C=NO [das erfindungsgemässe Arzneimittel, N-Allyl-2-pyridinaldoxiinbromid]
Konzentration (µg/g) I St. (Blut, Dosis 50 mg/kg intramuskulär, I St., Ratten): IO,I
Konzentrationsniveau im Blut im Vergleich zu TMB-4 (late time points (printed: 3 und 1 Stunden)): ungefähr um das Doppelte
concentration at 2 h [1]: 2.3 µg/g
concentration at 3 h [1]: 0.92 µg/g
concentration at 5 min [1]: 2.95 µg/g
concentration at 20 min [1]: 5.16 µg/g
concentration at 0.5 h [1]: 4.7 µg/g
concentration at 1 h (rat, blood, im, Blut, Dosis 20 mg/kg intramuskulär, I St., Ratten): 4.4 µg/g
concentration at 10 min [1]: 4.95 µg/g
concentration at 2 h [2]: 4.6 µg/g
concentration at 3 h [2]: 3.6 µg/g
concentration at 5 min [2]: 16.2 µg/g
concentration at 20 min [2]: 18 µg/g
concentration at 0.5 h [2]: 12.7 µg/g
concentration at 10 min [2]: 19 µg/g
Tmax (rat, blood, im, intramuskuläre Einführung, summary statement, read-out: Maximalniveau erreicht nach): 20 to 30 min
concentration at 2 h [3]: 1.12 µg/g
concentration at 3 h [3]: 0.64 µg/g
concentration at 5 min [3]: 2.64 µg/g
concentration at 20 min [3]: 4 µg/g
concentration at 0.5 h [3]: 3.75 µg/g
concentration at 1 h (rat, brain, im, Gehirn, Dosis 50 mg/kg intramuskulär, I St., Ratten): 2.06 µg/g
concentration at 10 min [3]: 5.65 µg/g
